Data published in US20250019648A1, “A SPERM EXTENDER MEDIUM” (MEAT & LIVESTOCK AUSTRALIA LIMITED, priority 2021, published 2025).

Legend:
[1] = Lide, Handbook of Chemistry and Physics, 72nd Edition; cited from earlier work
bovine spermatozoa [2] = experiment: Comparison of amino acid osmolytes on bovine sperm motility during liquid storage at RT; type: cell-based; conditions: for total and progressive motilities compared with other osmolyte treatments: Part 1, 7 days storage at RT, n=10 bulls; for total and progressive motilities compared with other osmolyte treatments / motility by day 14 of storage / loss in motility between 3 and 10 days of storage: 82.2 mM in base solution without NaCl; for motility by day 14 of storage / loss in motility between 3 and 10 days of storage / motility compared with NaCl and choline chloride controls: Part 2; for motility by day 14 of storage / loss in motility between 3 and 10 days of storage: RT; for loss in motility between 3 and 10 days of storage: n=9 bulls; for motility compared with NaCl and choline chloride controls: all time points (3, 7, 10, 14 days) at RT; for capability to prolong bovine sperm motility at room temperature: amino acid as osmolyte in extender medium
Description: (§1) Sperm motility was objectively determined with computer assisted sperm analysis (CASA; IVOS, Hamilton Thorne, Danvers, MA) using the following settings; negative phase-contrast optics, recording rate of 60 frames/s, minimum contrast of 70, minimum cell size of 4 pixels, low size gate of 0.17, high size gate of 2.9, low intensity gate of 0.6, high intensity gate of 1.74, non-motile head size of 10 pixels, non-motile head intensity of 135, progressive VAP threshold of 50 μm/s, slow (static) cells VAP threshold of 20 μm/s, slow (static) cells VSL threshold of 0 μm/s and threshold STR of 75%. […] Cells with a VAP greater than that of the mean VAP of progressive cells were considered ‘rapid’. A minimum of 200 spermatozoa in a minimum of five fields were assessed using 20 μm Leja standard count slides (Gytech, Australia) and a stage temperature of 37° C.
Bull semen (animals were housed at Charles Sturt University, Wagga Wagga, NSW, Australia) was collected via electroejaculation, immediately diluted 2:1 (extender:semen) with equine INRA96™ semen extender, and maintained at room temperature (RT) before further processing. Extended semen was then layered onto a discontinuous (45/90%) Percoll™ gradient and centrifuged at 700×g for 30 min to isolate high quality spermatozoa to be used for storage experiments described below. The high-quality pelleted spermatozoa were then resuspended in modified Biggers, Whitter and Whittingham (BWW) medium (Gibb et al., 2014) and washed again via centrifugation (300×g for 5 min). Pelleted spermatozoa were then resuspended in the various formulations described in each experiment, and stored in 5 mL Sarstedt specimen pots at RT (21-23° C.) in the dark until they were assessed.
This study was undertaken in 2 parts: the first was a screening of soluble amino acids (spermatozoa from split ejaculates of n=10 bulls), and the second was to confirm the results of the first part using only the most successful 3 amino acids (spermatozoa from split ejaculates of n=9 bulls). Sodium chloride and choline chloride were used as osmolyte controls.
The base bovine extender solution described above (Example 1, Experiment 3) was utilised for the purposes of these evaluations, with the exception that the 41.1 mM NaCl was not included in the base solution to which either the test amino acid or choline chlorine was added. Test amino acid was added to the base solution to a final concentration of 82.2 mM whilst the controls contained either the NaCl or choline chloride to a final concentration of 41.1 mM. The initial pH of solutions varied between 7-10 and were adjusted to be between 7.5 and 8.0 with either KOH or HCl. All test media were supplemented with 100 U/ml Nystatin to control fungal growth. Sperm motility was assessed as per Example 1.
For Part 1 of the study, motility was evaluated following 7 days liquid storage at room temperature (RT). Motility of spermatozoa was evaluated at 3, 7, 10 and 14 days liquid storage at RT for Part 2 of the study. Data were again analysed using JMP v14 software (ANOVA).

bovine spermatozoa [3] = experiment: Effects of medium components on bovine sperm motility after 24 hours at RT (Experiment 2); type: cell-based; conditions: for effect on sperm motility at the 24 h mark as determined by CASA: field conditions, rosiglitazone 0-100 μM, sugar source, coenzyme Q10; for total and progressive motilities when 50% of the NaCl was replaced: L-carnitine 100 mM or choline chloride 95 mM
Description: Institutional and New South Wales State Government ethical approval was secured for the use of animal material in this study. This research was based on ejaculates from 17 normozoospermic Angus bulls (between 3 and 7 years of age) of proven fertility, held on institutionally-approved premises at Charles Sturt University ([…], Australia). Semen was collected via electro-ejaculation, and the ejaculate was either left undiluted (Experiment 1) or was immediately diluted (2:1; extender:semen) with INRA96 (Experiments 2 and 3-Sections 2 and 3). […] Equipment and extender medium were maintained at temperatures between 30° C. and 37° C. for the duration of semen collection and dilution. The tubes of extended semen were then held in the laboratory at RT (approx. 20 to 25° C.) for up to 30 min prior to further processing. For Experiment 1, up to 6 mL of the extended semen was either centrifuged directly (700×g for 10 min), or was overlaid on top of BoviPureTM gradient and centrifuged at 700×g for 20 min, and for Experiments 2 and 3 up to 5 mL extended semen was layered on top of PercollTM gradients and centrifuged at 700×g for 30 min. Following centrifugation, the seminal plasma and density gradient media were removed and discarded. Spermatozoa were recovered from the base of the tubes, resuspended in 2 mL BWW and washed via centrifugation (500×g for 5 min) with BWW. These pelleted cells were then resuspended at a concentration of 50×10^6 spermatozoa/mL in the experimental extender media. Sperm motility was objectively determined with computer assisted sperm analysis (CASA; IVOS, Hamilton Thorne, Danvers, MA) using the following settings; negative phase-contrast optics, recording rate of 60 frames/s, minimum contrast of 70, minimum cell size of 4 pixels, low size gate of 0.17, high size gate of 2.9, low intensity gate of 0.6, high intensity gate of 1.74, non-motile head size of 10 pixels, non-motile head intensity of 135, progressive VAP threshold of 50 μm/s, slow (static) cells VAP threshold of 20 μm/s, slow (static) cells VSL threshold of 0 μm/s and threshold STR of 75%. […] Cells with a VAP greater than that of the mean VAP of progressive cells were considered 'rapid'. A minimum of 200 spermatozoa in a minimum of five fields were assessed using 20 μm Leja standard count slides ([…], Australia) and a stage temperature of 37° C.

bovine spermatozoa [4] = experiment: Fungicide comparison on bovine sperm motility; type: cell-based; conditions: Nystatin 100 U/mL, Fluconazole 12.5 mg/L and 25 mg/L; 1, 3, 7, 10 and 14 days at RT in glycine (82.2 mM) medium
Description: as §1, with “C. […]” for “C.”
Semen was collected, processed and stored according as above (Example 2, Section 1.1). Following 1, 3, 7, 10 and 14 days of storage at RT in the base extender solution as described (Example 2, Experiment 2) supplemented with glycine to a final concentration of 82.2 mM (pH of the medium was 7.9), sperm motility was assessed using CASA as above. Data were analysed using JMP v14 software (ANOVA).

C[C@H](N)C(=O)O [alanine]
isoelectric point (pI) [1]: 6.0
total and progressive motilities compared with other osmolyte treatments (bovine spermatozoa [2]): significantly higher than all other treatments
motility by day 14 of storage (bovine spermatozoa [2]): significantly declined
loss in motility between 3 and 10 days of storage (bovine spermatozoa [2]): did not suffer any significant loss in motility
motility compared with NaCl and choline chloride controls (bovine spermatozoa [2]): significantly higher than both of the controls

OC[C@H]1O[C@@](CO)(O[C@H]2O[C@H](CO)[C@@H](O)[C@H](O)[C@H]2O)[C@@H](O)[C@@H]1O [sucrose]
effect on sperm motility at the 24 h mark as determined by CASA (bovine spermatozoa [3]): No significant effects

OC[C@H]1O[C@H](OC[C@H]2O[C@H](O[C@]3(CO)O[C@H](CO)[C@@H](O)[C@@H]3O)[C@H](O)[C@@H](O)[C@@H]2O)[C@H](O)[C@@H](O)[C@H]1O [raffinose]
effect on sperm motility at the 24 h mark as determined by CASA (bovine spermatozoa [3]): No significant effects

OC(Cn1cncn1)(Cn1cncn1)c1ccc(F)cc1F [Fluconazole]
difference in sperm motility between antifungal treatments and control with no antifungal (bovine spermatozoa [4]): No significant differences

C[N+](C)(C)CCO.[Cl-] [choline chloride, reference compound]
total and progressive motilities when 50% of the NaCl was replaced (bovine spermatozoa [3]; 24 hours at RT): improved

CC(=O)C(=O)[O-].[Na+] [Sodium pyruvate]
difference in sperm motility versus absence of the component (bovine spermatozoa [3]; 0.275 mM to 20 mM, 24 hours at RT): No significant difference

CC[C@H](C)[C@H](N)C(=O)O [isoleucine]
isoelectric point (pI) [1]: 6.02
capability to prolong bovine sperm motility at room temperature (bovine spermatozoa [2]): no or only relatively limited capability

NCC(=O)O [glycine]
isoelectric point (pI) [1]: 5.97
total and progressive motilities compared with other osmolyte treatments (bovine spermatozoa [2]): significantly higher than all other treatments
motility by day 14 of storage (bovine spermatozoa [2]): significantly declined
loss in motility between 3 and 10 days of storage (bovine spermatozoa [2]): did not suffer any significant loss in motility
motility compared with NaCl and choline chloride controls (bovine spermatozoa [2]): significantly higher than both of the controls

CC(C)[C@H](N)C(=O)O [valine]
isoelectric point (pI) [1]: 5.96
total and progressive motilities compared with other osmolyte treatments (bovine spermatozoa [2]): substantially better
motility by day 14 of storage (bovine spermatozoa [2]): significantly declined
loss in motility between 3 and 10 days of storage (bovine spermatozoa [2]): did not suffer any significant loss in motility
motility compared with NaCl and choline chloride controls (bovine spermatozoa [2]): significantly higher than both of the controls
motility, valine compared with taurine (bovine spermatozoa [2]; day 14 of liquid storage, data not shown): better motility

O=C(O)[C@@H]1CCCN1 [proline]
isoelectric point (pI) [1]: 6.3
capability to prolong bovine sperm motility at room temperature (bovine spermatozoa [2]): no or only relatively limited capability

N[C@@H](CS)C(=O)O [cysteine]
isoelectric point (pI) [1]: 5.07
capability to prolong bovine sperm motility at room temperature (bovine spermatozoa [2]): no or only relatively limited capability

COC1=C(OC)C(=O)C(C/C=C(\C)CC/C=C(\C)CC/C=C(\C)CC/C=C(\C)CC/C=C(\C)CC/C=C(\C)CC/C=C(\C)CC/C=C(\C)CC/C=C(\C)CCC=C(C)C)=C(C)C1=O [coenzyme Q10]
effect on sperm motility at the 24 h mark as determined by CASA (bovine spermatozoa [3]): No significant effects

C[N+](C)(C)C[C@H](O)CC(=O)[O-] [L-carnitine]
total and progressive motilities when 50% of the NaCl was replaced (bovine spermatozoa [3]; 24 hours at RT): improved

N[C@@H](Cc1ccccc1)C(=O)O [phenylalanine]
isoelectric point (pI) [1]: 5.48
capability to prolong bovine sperm motility at room temperature (bovine spermatozoa [2]): no or only relatively limited capability

CC(C)C[C@H](N)C(=O)O [leucine]
capability to prolong bovine sperm motility at room temperature (bovine spermatozoa [2]): no or only relatively limited capability

O=C(CO)[C@@H](O)[C@H](O)[C@H](O)CO [fructose]
effect on sperm motility at the 24 h mark as determined by CASA (bovine spermatozoa [3]): No significant effects

NCCS(=O)(=O)O [taurine, 2-aminoethane-1-sulfonic acid]
total and progressive motilities compared with other osmolyte treatments (bovine spermatozoa [2]): significantly higher than all other treatments
total and progressive motility, taurine compared with valine (bovine spermatozoa [2]; day 3 of liquid storage): better total and progressive motility

N[C@@H](Cc1c[nH]c2ccccc12)C(=O)O [tryptophan]
isoelectric point (pI) [1]: 5.89
capability to prolong bovine sperm motility at room temperature (bovine spermatozoa [2]): no or only relatively limited capability

CSCC[C@H](N)C(=O)O [methionine]
isoelectric point (pI) [1]: 5.74
capability to prolong bovine sperm motility at room temperature (bovine spermatozoa [2]): no or only relatively limited capability
